Assay [1] has as its target angiotensin II binding to rat adrenal receptor preparations. Description: inhibition of 125I-angiotensin II binding to rat adrenal receptor preparations.
In assay [2] the test system is 2 kidney, 1-clip Goldblatt hypertensive rat (RHR). Description: blood pressure lowering in conscious 2 kidney, 1-clip Goldblatt (renal) hypertensive rats (RHR), AHP3. Format: in vivo. As to conditions: 30 mg/kg ip, read-out: Max % decrease in blood pressure, 30 mg/kg ip in RHR. The method, then: (§1) Thus, for example, compounds of formula I when administered intraperitoneally or orally to 2 kidney, 1-clip Goldblatt (renal) hypertensive rats (See S Sen, et al., "Role of Renin-Angiotensin System in Chronic Renal Hypertensive Rats," Hypertension 1:427-434 (1979) and Clin. Soc. 57:53-62, 1979, "Antihypertensive Effect of Prolonged Blockade of Angiotensin Formation in Benign and Malignant, one-and two-kidney Goldblatt Hypertensive Rats".) at doses in the range of 1-100 mg/kg cause 10-80 mmHg drops in blood pressure. […] Angiotensin binding inhibition activity and blood pressure lowering activity in renal hypertensive rats of the optimally substituted examples of formula I are listed in Table 1. Blood pressure lowering activity in spontaneously hypertensive rats of optimally substituted examples of formula II are listed in Table 2.
(§2) […] EVALUATION (AHP3)
(§3) A Method for the Direct Monitoring of Aortic Blood Pressure and Heart Rate from Conscious Rats
(§4) The continuous monitoring of pulsatile blood pressure (BP) from unrestrained conscious rats surgically equipped with polyethylene cannulas was accomplished by means of a computer assisted data capture scheme (CADCS). The basic elements of the methodology are the cannulation procedure and the CADCS.
(§5) Rats were anesthetized with Telazol (1:1 tiletamine HCl and zolazepam HCl); 20-40 mg/kg IM and the descending aorta exposed via a midline incision. Cannulas fabricated from polyethylene tubing were inserted into the aorta via an undersized puncture hole below the renal arteries. The puncture hole was made by a 23 G disposable needle with a section of the aorta clamped off above and below the puncture site. The cannulas, consisting of a PE100 (0.86 mm ID) body and a PE50 (0.58 mm ID) tip, were attached to a trocar, inserted through the psoas muscle, and passed subcutaneously along the midline of the back and externalized between the ears. The cannulas were anchored to the psoas muscle and between the scalulae (3-0 green braided suture). The midline incision was closed in two steps (muscle first, skin second) using continuous over-and-over sutures (4-0 chronic). Each rat was then given penicillin 30,000 units subcutaneously (Penicillin G Procaine Sterile Suspension).
(§6) The rats were fitted with a harness-springswivel assembly designed to protect the cannula and to provide the rat relative freedom of movement. The harnesses were fabricated from nylon hook and loop tape cemented to a metal plate to which spring wires (18-8 stainless steel), were attached to brass swivels. Each polyethylene cannula was channeled through a spring and connected through a swivel to a pressure transducer (Model P23Gb; Statham Instruments; Hato Rey, Puerto Rico) and an infusion pump (Sage model 234-7; Orion Research, Cambridge, Mass.) by means of PE100 tubing. While on test, each rat received a continuous slow infusion of heparinized saline solution (approximately 0.40 ml or 40 units of heparin per 24 hr period) to prevent clot formation. Additional "flushes" of the cannula with heparinized saline were carried out when the aortic pulse pressure (systolic minus diastolic) was less than 25 mm Hg.
(§7) The pulsatile blood pressure of each of 32 rats was monitored continuously by two signal conditioning units (Gould, Clev., Ohio). The signals from these units were monitored and digital data for mean, systolic, and diastolic blood pressures as well as for heart rate were calculated every 5 min by two in-laboratory computers (Hewlett Packard, Cupertino, Calif.). These in-laboratory computers have the capacity to store 32 days of this 5 min data. Communication with the mainframe research computer (IBM 3083) from the two inlaboratory computers allowed for data analysis and report generation. […]

The test system of assay [3] is spontaneously hypertensive rat (SHR). Description: blood pressure lowering in conscious spontaneously hypertensive rats (SHR), AHP3. The class given is in vivo. Particulars: 30 mg/kg PO, read-out: Max % decrease in blood pressure, 30 mg/kg PO in SHR. The method, then:
as §1, §2, §3, §4, §5, §6, §7

24 molecules from patent US4812462A, “4,5,6,7-tetrahydro-1H-imidazo[4,5-c]pyridine-6-carboxylic acid analogs having antihypertensive activity” (Warner-Lambert Company, priority 1986, dated 1989) can be followed below.

Structures can show the parent of a compound that is named as a salt.

In assay [1], `O=C(O)C1Cc2c(ncn2Cc2ccccc2)CN1C(=O)C1c2ccccc2-c2ccccc21` (single isomer, unassigned) [Example 29, 1H-Imidazo[4,5-c]pyridine-6-carboxylic acid, 5-[(9H-fluoren-9-yl)carbonyl]-4,5,6,7-tetrahydro-1-(phenylmethyl)-, (+)-] gave an IC50 of 8 µM.
`O=C(O)C1Cc2c(ncn2CCC23CC4CC(CC(C4)C2)C3)CN1C(=O)C(c1ccccc1)c1ccccc1` (stereo not shown) [Example 2, 1-(2-(1-Adamantyl)ethyl)-5-diphenylacetyl-4,5,6,7-tetrahydro-1H-imidazo[4,5-c]pyridine-6-carboxylic acid] showed an IC50 in assay [1] of 0.1 µM. Further, the change in vivo at 30 mg/kg in assay [2] was -26%.
As to `O=C(O)C1Cc2c(ncn2CCC2CCCCC2)CN1C(=O)C(c1ccccc1)c1ccccc1` (stereo not shown) [Example 4, 1-(2-Cyclohexylethyl)-5-diphenylacetyl-4,5,6,7-tetrahydro-1H-imidazo[4,5-c]pyridine-6-carboxylic acid], the IC50 in assay [1] worked out at 0.24 µM. Also, the change in vivo at 30 mg/kg in assay [2] is -13%.
The matching figures for `O=C(O)C1Cc2c(ncn2CCc2ccccc2)CN1C(=O)Cc1ccccc1` (stereo not shown) [Example 6, 1-(2-Phenylethyl)-5-phenylacetyl-4,5,6,7-tetrahydro-1H-imidazo[4,5-c]pyridine-6-carboxylic acid]: 2.4 µM and -16%.
Consider `Cc1cc(Cn2cnc3c2CC(C(=O)O)N(C(=O)C(c2ccccc2)c2ccccc2)C3)ccc1N` (stereo not shown) [Example 13, 1-(4-Amino-3-methylphenyl)methyl-5-diphenylacetyl-4,5,6,7-tetrahydro-1H-imidazo[4,5-c]pyridine-6-carboxylic acid], for which the change in vivo at 30 mg/kg in assay [2] is -22%.
In turn, `O=C(O)C1Cc2c(ncn2Cc2ccccc2O)CN1C(=O)C(c1ccccc1)c1ccccc1` (stereo not shown) [Example 17, 1-(2-Hydroxyphenyl)methyl-5-diphenylacetyl-4,5,6,7-tetrahydro-1H-imidazo[4,5-c]pyridine-6-carboxylic acid] came in with an IC50 in assay [1] of 0.69 µM. Moreover, in assay [2], the change in vivo at 30 mg/kg was -21%.
As to `COc1ccc(Cn2cnc3c2CC(C(=O)O)N(C(=O)C(c2ccccc2)c2ccccc2)C3)cc1C` (stereo not shown) [Example 19, 1-(3-Methyl-4-methoxyphenyl)methyl-5-diphenylacetyl-4,5,6,7-tetrahydro-1H-imidazo[4,5-c]-pyridine-6-carboxylic acid], the IC50 in assay [1] amounted to 0.07 µM. Moreover, the change in vivo at 30 mg/kg in assay [2] was -14%.
For `O=C(O)C1Cc2c(ncn2Cc2ccc(C(F)(F)F)cc2)CN1C(=O)C(c1ccccc1)c1ccccc1` (stereo not shown) [Example 21, 1-(4-Trifluoromethylphenyl)methyl-5-diphenylacetyl-4,5,6,7 tetrahydro-1H-imidazo[4,5-c]pyridine-6-carboxylic acid] the same measures were 0.19 µM and -18%.
`O=C(O)[C@@H]1Cc2c(ncn2Cc2ccccc2)CN1C(=O)C(c1ccc(Cl)cc1)c1ccc(Cl)cc1` [Example 22, (S)-5-[bis(4-chlorophenyl)acetyl]-4,5,6,7-tetrahydro-1-(phenylmethyl)-1H-imidazo[4,5-c]pyridine-6-carboxylic acid]: the IC50 in assay [1] worked out at 6.8 µM. Also, in assay [2], the change in vivo at 30 mg/kg was -27%.
`COc1ccc(Cn2cnc3c2C[C@@H](C(=O)O)N(C(=O)C(c2ccc(C)cc2)c2ccc(C)cc2)C3)cc1C` [Example 25, (S)-[bis(4-methylphenyl)acetyl]-4,5,6,7-tetrahydro-1-[(4-methoxy-3-methylphenyl)methyl]-1H-imidazo[4,5-c]-pyridine-6-carboxylic acid]: the change in vivo at 30 mg/kg in assay [2] was -12%.
As to `COc1ccc(N2C(=O)C3Cc4c(ncn4Cc4ccc(OC)c(C)c4)CN3C2=S)cc1` (stereo not shown) [Example 127, 6,7,8a,9-Tetrahydro-1-[(4-methoxy-3-methylphenyl)-methyl]-7-(4-methoxyphenyl)-6-thioxo-1H-diimidazo-[1,5-a:4',5'-d]-pyridine-8(4H)-one], the change in vivo at 30 mg/kg in assay [3] was -24%.
On the same count and under the same terms, next, `COc1ccc(N2C(=O)C3Cc4c(ncn4Cc4ccccc4)CN3C2=S)cc1` (stereo not shown) [Example 128, 6,7,8a,9-Tetrahydro-7-(4-methoxyphenyl)-1-(phenylmethyl)-6-thioxo-1H-diimidazo[1,5-a:4',5'-d]pyridine-8(4H)-one]: -32%; `CC(C)N1C(=O)[C@@H]2Cc3ncn(C)c3CN2C1=O` [Example 129, (S)-8a,9-dihydro-3-methyl-7-(1-methylethyl)-3H-diimidazo-[1,5-a:4',5'-d]pyridine-6,8(4H,7H)-dione]: -36%.
As to `CC(C)N1C(=O)C2Cc3c(ncn3Cc3ccccc3)CN2C1=O` (stereo not shown) [Example 130, 8a,9-Dihydro-7-(1-methylethyl)-1-(phenylmethyl)-1H-diimidazo[1,5-a:4',5'-d]pyridine-6,8(4H,7H)-dione hydrobromide], the change in vivo at 30 mg/kg in assay [3] is -21%.
Turning to `COc1ccc(N2C(=O)C3Cc4c(ncn4Cc4ccccc4)CN3C2=O)cc1` (stereo not shown) [Example 133, 1H-Diimidazo[1,5-a:4',5'-d]pyridine-6,8(4H,7H)-dione, 8a,9-dihydro-7-(4-methoxyphenyl)-1-(phenylmethyl)-, monohydrochloride], the change in vivo at 30 mg/kg in assay [3] was -29%.
On the same count and under the same terms, next, `CC(C)N1C(=O)C2Cc3nc[nH]c3CN2C1=O` (stereo not shown) [Example 154, 8a,9-Dihydro-7-(1-methylethyl)-3H-diimidazo[1,5-a:4',5'-d]-pyridine-6,8(4H,7H)-dione]: -39%.
On to `COc1ccc(N2C(=O)C3Cc4[nH]cnc4CN3C2=O)cc1` (stereo not shown) [Example 155, 8a,9-Dihydro-7-(4-methoxyphenyl)-1H-diimidazo[1,5-a:4',5'-d]pyridine-6,8(4H,7H)-dione], for which, in assay [3], the change in vivo at 30 mg/kg was -39%.
`CC(C)(C)N1C(=O)C2Cc3[nH]cnc3CN2C1=O` (stereo not shown) [Example 156, 7-(1,1-Dimethylethyl)-8a,9-dihydro-1H-diimidazo[1,5-a:4',5'-d]pyridine-6,8(4H,7H)-dione]: the change in vivo at 30 mg/kg in assay [3] was -18%.
Turning to `COc1ccc(N2C(=O)C3Cc4[nH]cnc4CN3C2=O)c(OC)c1` (stereo not shown) [Example 157, 7-(2,4-Dimethoxyphenyl)-8a,9-dihydro-1H-diimidazo[1,5-a:4',5'-d]pyridine-6,8(4H,7H)-dione], the change in vivo at 30 mg/kg in assay [3] was -22%.
Still for that read-out and setting: as for `COc1ccc(N2C(=O)C3Cc4[nH]cnc4CN3C2=S)cc1` (stereo not shown) [Example 159, 1,4,6,7,8a,9-Hexahydro-7-(4-methoxyphenyl)-6-thioxo-8H-diimidazo[1,5-a:4',5'-d]pyridine-8-one], the figure is -39%.
Still for that read-out and setting: as for `CN(C)c1ccc(N2C(=O)C3Cc4[nH]cnc4CN3C2=S)cc1` (stereo not shown) [Example 160, 7-[4-(Dimethylamino)phenyl]-1,4,6,7,8a,9-hexahydro-6-thioxo-8H-diimidazo[1,5-a:4',5'-d]pyridine-8-one], the figure is -34%; as for `O=C1C2Cc3[nH]cnc3CN2C(=S)N1c1ccccc1` (stereo not shown) [Example 161, 1,4,6,7,8a,9-Hexahydro-7-phenyl-6-thioxo-8H-diimidazo[1,5-a:4',5'-d]pyridine-8-one], -28%; as for `CC(C)N1C(=O)C2Cc3[nH]cnc3CN2C1=S` (stereo not shown) [Example 162, 1,4,6,7,8a,9-Hexahydro-7-(1-methylethyl)-6-thioxo-8H-diimidazo-(1,5-a:4',5'-d]pyridine-8-one], -39%.
Still for that read-out and setting: as for `COc1ccc(N2C(=O)C3Cc4c(ncn4Cc4ccc([N+](=O)[O-])c(C)c4)CN3C2=O)cc1` (stereo not shown) [Example 273, 1H-Diimidazo[1,5-c:4',5'-d]pyridine-6,8(4H,7H)-dione, 8a,9-dihydro-7-(4-methoxyphenyl)-1-[(3-methyl-4nitrophenyl)methyl], monohydrochloride], the figure is -14%.
